From patent US12291534B2, “Aminonorbornane derivative and manufacture method therefor and use thereof” (TRANSTHERA SCIENCES (NANJING), INC., priority 2018, dated 2025)

Experiments:
TMD-8 = assay: In vitro tumor cell proliferation inhibition (CellTiter-Glo), TMD-8; format: cell-based, human
Procedure: (§1) 2. Experiment on In Vitro Tumor Cell Proliferation Inhibition (1) Method • The tumor cell line (TMD-8/OCY-LY10) was suspended in RPMI1640+FBS10% and cultured in an incubator (37° C. 5% CO2). Cells were passaged periodically, and cells at logarithmic growth phase were collected for plating. • Cell staining was performed with trypan blue and viable cells were counted. • Cell concentration was adjusted to 7000 cells/well with medium. • 90 μL of cell suspension was added to a 96-well plate and cell-free culture medium was added to the blank control wells. • Cells in the 96-well plate were incubated overnight in an incubator (37° C., 5% CO2, 100% relative humidity). • Preparation of 400× compound storage plates: test compounds and reference drug were each dissolved in DMSO and 3× diluted from the highest concentration (400 μM) to the lowest concentration (0.61 μM). • Preparation of 10× compound working solutions: 78 μL of cell culture medium was added to a V-bottom 96-well plate, and 2 μL of the compound was pipetted from the 400× compound storage plate into the 96-well plate. Vehicle control wells and blank control wells were added with 2 μL of DMSO. […] Inhibition rates of compounds at different concentrations were calculated in Excel, followed by plotting the inhibition curves and calculating IC50 values with GraphPad Prism. […]

OCI-LY10 = assay: In vitro tumor cell proliferation inhibition (CellTiter-Glo), OCI-LY10; format: cell-based, human
Procedure: as §1

BTK (C481S) = BTK (C481S) (Homo sapiens (Human), UniProt Q06187, C481S); assay: pBTK inhibition in HEK293 cells transfected with BTK(C481S) (ELISA); format: cell-based; conditions: 2 h incubation
BTK (C481S), sequence (Q06187 whole entry C481S): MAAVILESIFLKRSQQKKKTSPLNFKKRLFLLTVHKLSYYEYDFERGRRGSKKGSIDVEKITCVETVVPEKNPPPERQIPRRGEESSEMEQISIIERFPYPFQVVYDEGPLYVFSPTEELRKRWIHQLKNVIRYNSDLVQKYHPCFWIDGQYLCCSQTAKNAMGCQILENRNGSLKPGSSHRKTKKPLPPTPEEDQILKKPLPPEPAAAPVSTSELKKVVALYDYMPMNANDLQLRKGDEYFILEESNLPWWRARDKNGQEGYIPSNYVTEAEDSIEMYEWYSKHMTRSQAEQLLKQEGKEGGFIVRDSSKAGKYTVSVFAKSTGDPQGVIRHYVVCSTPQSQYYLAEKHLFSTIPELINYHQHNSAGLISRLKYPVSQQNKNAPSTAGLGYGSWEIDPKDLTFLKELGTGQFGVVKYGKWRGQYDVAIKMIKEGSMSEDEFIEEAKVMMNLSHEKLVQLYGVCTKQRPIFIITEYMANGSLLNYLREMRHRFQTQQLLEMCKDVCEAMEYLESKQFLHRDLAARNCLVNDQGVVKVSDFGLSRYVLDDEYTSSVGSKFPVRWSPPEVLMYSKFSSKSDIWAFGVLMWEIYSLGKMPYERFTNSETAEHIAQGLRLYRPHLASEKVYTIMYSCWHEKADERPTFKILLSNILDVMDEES
Procedure: For positive (high signal) controls, cells were treated with 0.5% DMSO alone.

OCI-LY10 xenograft tumor = OCI-LY10 xenograft tumor model in CB17/SCID mice; format: in vivo; conditions: for anti-tumor activity (in words): OCI-LY10 xenograft tumor model
Procedure: (§2) CB17/SCID female mice with serious immune deficiency were purchased from Beijing Vital River Laboratory Animal Technology Co., Ltd. and bred in SPF animal houses. Human OCI-LY10 cells (Shanghai Junrui-UFBN0102) were cultured in an RPMI 1640 culture medium containing 10% fetal bovine serum, 100 U/mL penicillin and 100 μg/mL streptomycin through monolayer culture in vitro in an incubator (37° C. 5% CO2). Routine treatment was performed twice a week for passaging. At a cell saturation of 80%-90% and a required number, the cells were harvested and counted, 0.2 mL (1×10^7) of OCI-LY10 cells (together with matrigel at a volume ratio of 1:1) were subcutaneously inoculated into the right back of each mouse, and the tumor size could be measured about one week after inoculation. Tumor size was measured using a vernier caliper and tumor volume was calculated using the following formula: tumor volume=(length×width^2)/2.

TMD-8 xenograft tumor = TMD-8 xenograft tumor model in CB17/SCID mice; format: in vivo; conditions: for anti-tumor activity (in words): TMD-8 xenograft tumor model
Procedure: as §2, with “TMD-8” for “OCI-LY10”, “Junrui-UFBN1682)” for “Junrui-UFBN0102)”, “C.,” for “C.”, “volume […].” for “volume=(length×width^2)/2.”

Compound	inhibition of tumor cell proliferation (in words) (TMD-8)	inhibition of tumor cell proliferation (in words) (OCI-LY10)	IC50 (BTK (C481S)) [µM]	disappearance of xenograft tumors (OCI-LY10 xenograft tumor; 25 mg/kg bid, after 28 days of administration)	disappearance of xenograft tumors (OCI-LY10 xenograft tumor; 50 mg/kg bid, after 21 days of administration)	anti-tumor activity (in words) (OCI-LY10 xenograft tumor)	tolerance of tumor-bearing mice (OCI-LY10 xenograft tumor; all dosages (25, 50 mg/kg bid))	body weight of tumor-bearing mice (OCI-LY10 xenograft tumor; all treatment groups)	fraction of xenograft tumors disappeared (TMD-8 xenograft tumor; 50 mg/kg bid, after 27 days of administration)	anti-tumor activity (in words) (TMD-8 xenograft tumor)	tolerance of tumor-bearing mice (TMD-8 xenograft tumor; all dosages (25, 50 mg/kg bid))	body weight of tumor-bearing mice (TMD-8 xenograft tumor; all treatment groups)
Nc1nccn2c(C34CCC(NC(=O)CN5CCOCC5)(CC3)C4)nc(-c3ccc(C(=O)Nc4cc(C(F)(F)F)ccn4)cc3)c12 [Compound A-10-10, 4-(8-amino-3-(4-(2-morpholinoacetamido)bicyclo[2.2.1]heptan-1-yl)imidazo[1,5-a]pyrazin-1-yl)-N-(4-(trifluoromethyl)pyridin-2-yl)benzamide]	strong inhibition activity	strong inhibition activity	0.063	disappeared completely	completely disappeared	extremely strong anti-tumor activity	good tolerance	no significant weight loss	⅝	extremely strong anti-tumor activity	good tolerance	no significant weight loss
C=CC(=O)N1CCC[C@@H](n2nc(-c3ccc(Oc4ccccc4)cc3)c3c(N)ncnc32)C1 [Ibrutinib, reference compound]	strong inhibition activity	strong inhibition activity	–	–	–	extremely strong anti-tumor activity	–	–	–	extremely strong anti-tumor activity	–	–
